Measurements published in patent US9828339B2, “Biphenyl derivatives and methods for preparing same” (DONG-A ST CO., LTD, priority 2013, dated 2017).

Biological target: human muscarinic M3 receptor (Homo sapiens (Human), UniProt P20309)
Test: Binding assay on human muscarinic M3 receptor ([3H]-methyl scopolamine displacement)
Settings: membranes overexpressing human M3 receptor, Ki from IC50 by Cheng-Prusoff, read-out: Binding Affinity to M3 Receptor, Ki
Method: [Experimental Example 1] Binding Assay on Human Muscarinic M3 Receptor
Cell membrane proteins (Perkin Elmer) wherein human muscarinic M3 receptor was overexpressed, [^3H]-methyl scopolamine and test compounds in various concentration were cultured in 0.2 ml of Tris-HCl buffer at 25° C. for 120 minutes. The same was filtered under suction through glass fiber filter (Whatman GF/B), and then the filter was washed 5 times with 1 ml of Tris-HCl buffer. The radioactivity of [^3H]-methyl scopolamine adsorbed on the filter was measured by a liquid scintillation counter. Non-specific binding was evaluated under existence of 5 μM of atropine. Affinity of the compound of the present invention to muscarinic M3 receptor was calculated as the dissociation constant (Ki), which can be calculated from concentration (IC50) of test compounds inhibiting 50% of binding of [^3H]-methyl scopolamine (i.e. labeled ligand) according to Cheng and Prusoff [Cheng and Prusoff, Biochem. Pharmacol., 22, 3099, 1973].

Chain of human muscarinic M3 receptor (P20309 whole entry): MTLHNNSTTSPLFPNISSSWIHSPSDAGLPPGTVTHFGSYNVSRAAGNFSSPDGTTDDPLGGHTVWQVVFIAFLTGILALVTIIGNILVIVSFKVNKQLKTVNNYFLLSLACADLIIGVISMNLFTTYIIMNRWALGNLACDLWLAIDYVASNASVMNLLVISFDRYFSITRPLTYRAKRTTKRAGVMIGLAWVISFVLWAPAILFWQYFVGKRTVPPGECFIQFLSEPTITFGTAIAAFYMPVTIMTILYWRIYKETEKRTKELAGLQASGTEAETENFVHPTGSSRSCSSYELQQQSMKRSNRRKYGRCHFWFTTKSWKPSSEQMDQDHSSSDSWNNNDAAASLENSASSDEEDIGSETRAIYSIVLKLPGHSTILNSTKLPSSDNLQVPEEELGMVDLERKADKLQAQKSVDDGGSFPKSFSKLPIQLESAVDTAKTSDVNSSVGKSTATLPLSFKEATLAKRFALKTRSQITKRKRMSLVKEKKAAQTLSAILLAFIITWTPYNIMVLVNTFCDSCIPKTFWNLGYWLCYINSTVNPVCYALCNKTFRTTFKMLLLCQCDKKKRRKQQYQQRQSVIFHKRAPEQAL

Row | Structure (SMILES) | Ki
1 | CN1CCCC1CCOC(=O)Nc1ccc(F)cc1-c1cc(Cl)cc(Cl)c1 (stereo not shown) [Example 55, 2-(1-methylpyrrolidin-2-yl)ethyl(3′,5′-dichloro-5-fluoro-[1,1′-biphenyl]-2-yl)carbamate] | 38.8 nM
2 | COc1ccc(NC(=O)OCCC2CCCN2C)c(-c2cc(F)cc(F)c2)c1 (stereo not shown) [Example 62, 2-(1-Methylpyrrolidin-2-yl)ethyl(3′,5′-difluoro-5-methoxy-[1,1′-biphenyl]-2-yl)carbamate] | > 1000 nM
3 | CN1CCC[C@H]1COC(=O)Nc1ccc(F)cc1-c1ccc(Cl)c(F)c1 [Example 212, (S)-(1-methylpyrrolidin-2-yl)methyl(4′-chloro-3′,5-difluoro-[1,1′-biphenyl]-2-yl)carbamate] | > 1000 nM
4 | CN1CCCC1CCOC(=O)Nc1ccc(C(F)(F)F)cc1-c1ccc(F)cc1 (stereo not shown) [Example 48, 2-(1-Methylpyrrolidin-2-yl)ethyl(4′-fluoro-5-(trifluoromethyl)-[1,1′-biphenyl]-2-yl)carbamate] | 258 nM
5 | CN1CCCC1CCOC(=O)Nc1ccccc1-c1ccc(OC(F)(F)F)cc1 (stereo not shown) [Example 10, 2-(1-methylpyrrolidin-2-yl)ethyl(4′-trifluoromethoxy-[1,1′-biphenyl]-2-yl)carbamate] | 401 nM
6 | CN1CCCC1CCOC(=O)Nc1ccccc1-c1cccc(N)c1 (stereo not shown) [Example 33, 2-(1-methylpyrrolidin-2-yl)ethyl(3′-amino-[1,1′-biphenyl]-2-yl)carbamate] | 16.8 nM
7 | COc1ccc(NC(=O)OCCC2CCCN2C)c(-c2ccc(F)c(Cl)c2)c1 (stereo not shown) [Example 65, 2-(1-Methylpyrrolidin-2-yl)ethyl (3′-chloro-4′-fluoro-5-methoxy-[1,1′-biphenyl]-2-yl)carbamate] | 71.3 nM
8 | COc1ccc(-c2cc(F)ccc2NC(=O)OC[C@@H]2CCCN2C)cc1OC [Example 220, (S)-(1-methylpyrrolidin-2-yl)methyl (5-fluoro-3′,4′-dimethoxy-[1,1′-biphenyl]-2-yl)carbamate] | > 1000 nM
9 | CN1CCCC1CCOC(=O)Nc1ccccc1-c1ccc(C#N)cc1 (stereo not shown) [Example 28, 2-(1-methylpyrrolidin-2-yl)ethyl(4′-cyano-[1,1′-biphenyl]-2-yl)carbamate] | 845 nM
10 | CN1CCC[C@H]1COC(=O)Nc1ccc(F)cc1-c1ccc(Cl)cc1Cl [Example 176, (S)-(1-methylpyrrolidin-2-yl)methyl (2′,4′-dichloro-5-fluoro-[1,1′-biphenyl]-2-yl)carbamate] | > 1000 nM
11 | COc1ccc(NC(=O)OCCC2CCCN2C)c(-c2ccccc2)c1 (stereo not shown) [Example 60, 2-(1-methylpyrrolidin-2-yl)ethyl(5-methoxy-[1,1′-biphenyl]-2-yl)carbamate] | 119 nM
12 | CN1CCCC1CCOC(=O)Nc1ccccc1-c1ccc(N)c(Cl)c1 (stereo not shown) [Example 39, 2-(1-methylpyrrolidin-2-yl)ethyl(4′-amino-3′-chloro-[1,1′-biphenyl]-2-yl)carbamate] | 28 nM
13 | COc1ccc(NC(=O)OCCC2CCCN2C)c(-c2cc(Cl)cc(Cl)c2)c1 (stereo not shown) [Example 64, 2-(1-Methylpyrrolidin-2-yl)ethyl(3′,5′-dichloro-5-methoxy-[1,1′-biphenyl]-2-yl)carbamate] | > 1000 nM
14 | CN1CCCC1CCOC(=O)Nc1ccc(C(F)(F)F)cc1-c1ccccc1 (stereo not shown) [Example 47, 2-(1-Methylpyrrolidin-2-yl)ethyl(5-(trifluoromethyl)-[1,1′-biphenyl]-2-yl)carbamate] | 136 nM
15 | COc1ccc(-c2ccccc2NC(=O)OCCC2CCCN2C)cc1 (stereo not shown) [Example 5, 2-(1-methylpyrrolidin-2-yl)ethyl(4′-methoxy-[1,1′-biphenyl]-2-yl)carbamate] | 1100 nM
16 | COc1ccc(NC(=O)OCCC2CCCN2C)c(-c2cccc(F)c2)c1 (stereo not shown) [Example 61, 2-(1-methylpyrrolidin-2-yl)ethyl(3′-fluoro-5-methoxy-[1,1′-biphenyl]-2-yl)carbamate] | 218 nM
17 | CN1CCCC1CCOC(=O)Nc1ccc(F)cc1-c1cccc(F)c1 (stereo not shown) [Example 18, 2-(1-methylpyrrolidin-2-yl)ethyl(3′,5-difluoro-[1,1′-biphenyl]-2-yl)carbamate] | 6.98 nM
18 | CN1CCCC1CCOC(=O)Nc1ccccc1-c1ccccc1N (stereo not shown) [Example 32, 2-(1-methylpyrrolidin-2-yl)ethyl(2′-amino-[1,1′-biphenyl]-2-yl)carbamate] | > 1000 nM
19 | CN1CCCC1CCOC(=O)Nc1ccc(C(F)(F)F)cc1-c1cccc(F)c1 (stereo not shown) [Example 49, 2-(1-Methylpyrrolidin-2-yl)ethyl(3′-fluoro-5-(trifluoromethyl)-[1,1′-biphenyl]-2-yl)carbamate] | 303 nM
20 | O=C(Nc1ccccc1-c1cc(F)cc(F)c1)OC[C@@H]1CCNC1 [Example 80, (R)-pyrrolidin-3-ylmethyl-(3′,5′-difluoro-[1,1′-biphenyl]-2-yl)carbamate] | 27.4 nM
21 | CCc1cccc(-c2cc(F)ccc2NC(=O)OCCC2CCCN2C)c1 (stereo not shown) [Example 44, 2-(1-methylpyrrolidin-2-yl)ethyl(3′-ethyl-5-fluoro-[1,1′-biphenyl]-2-yl)carbamate] | 95.5 nM
22 | Cc1cc(C)cc(-c2cc(F)ccc2NC(=O)OCCC2CCCN2C)c1 (stereo not shown) [Example 45, 2-(1-methylpyrrolidin-2-yl)ethyl(5-fluoro-3′,5′-dimethyl-[1,1′-biphenyl]-2-yl)carbamate] | 69.6 nM

More lines, now with the values ahead:

Row | Ki | Structure (SMILES)
23 | 9.23 nM | CN1CCC[C@H]1COC(=O)Nc1ccccc1-c1cccc(N)c1 [Example 170, (S)-(1-methylpyrrolidin-2-yl)methyl(3′-amino-[1,1′-biphenyl]-2-yl)carbamate]
24 | 34.5 nM | CN1CC[C@@H](COC(=O)Nc2ccc(F)cc2-c2cccc(N)c2)C1 [Example 133, (R)-(1-methylpyrrolidin-3-yl)methyl(5-fluoro-3′-amino-[1,1′-biphenyl]-2-yl)carbamate]
25 | 52.8 nM | CN1CC[C@H](COC(=O)Nc2ccc(F)cc2-c2cc(O)cc(Cl)c2)C1 [Example 123, (S)-(1-methylpyrrolidin-3-yl)methyl(3′-chloro-5-fluoro-5′-hydroxy-[1,1′-biphenyl]-2-yl)carbamate]
26 | 35.2 nM | Cc1ccc(NC(=O)OC[C@@H]2CCN(C)C2)c(-c2ccccc2)c1 [Example 97, (R)-(1-methylpyrrolidin-3-yl)methyl (5-methyl-[1,1′-biphenyl]-2-yl)carbamate]
27 | 36.9 nM | CN1CCC[C@H]1COC(=O)Nc1ccccc1-c1ccc(Cl)cc1 [Example 164, (S)-(1-methylpyrrolidin-2-yl)methyl(4′-chloro-[1,1′-biphenyl]-2-yl)carbamate]
28 | 16.1 nM | CN1CCC[C@H]1COC(=O)Nc1ccccc1-c1cc(F)c(F)cc1F [Example 163, (S)-(1-methylpyrrolidin-2-yl)methyl (2′,4′,5′-trifluoro-[1,1′-biphenyl]-2-yl)carbamate]
29 | 223 nM | COc1cc(Cl)cc(-c2cc(F)ccc2NC(=O)OC[C@@H]2CCCN2C)c1 [Example 217, (S)-(1-methylpyrrolidin-2-yl)methyl (3′-chloro-5-fluoro-5′-methoxy-[1,1′-biphenyl]-2-yl)carbamate]
30 | > 1000 nM | CN1CC[C@@H](COC(=O)Nc2cc(F)c(F)cc2-c2cccc(Cl)c2)C1 [Example 182, (R)-(1-methylpyrrolidin-3-yl)methyl (3′-chloro-4,5-difluoro-[1,1′-biphenyl]-2-yl)carbamate]
31 | 121 nM | COc1ccc(NC(=O)OC[C@@H]2CCCN2C)c(-c2cccc(F)c2)c1 [Example 223, (S)-(1-methylpyrrolidin-2-yl)methyl(3′-fluoro-5-methoxy-[1,1′-biphenyl]-2-yl)carbamate]
32 | 22.5 nM | CN1CCC[C@H]1COC(=O)Nc1ccc(F)cc1-c1ccc(Cl)cc1 [Example 175, (S)-(1-methylpyrrolidin-2-yl)methyl (4′-chloro-5-fluoro-[1,1′-biphenyl]-2-yl)carbamate]
33 | 53.6 nM | COc1ccc(NC(=O)OC[C@@H]2CCCN2C)c(-c2ccc(Cl)c(Cl)c2)c1 [Example 225, (S)-(1-methylpyrrolidin-2-yl)methyl (3′,4′-dichloro-5-methoxy-[1,1′-biphenyl]-2-yl)carbamate]
34 | 28.3 nM | COc1ccc(NC(=O)OC[C@@H]2CCCN2C)c(-c2ccccc2)c1 [Example 222, (S)-(1-methylpyrrolidin-2-yl)methyl(5-methoxy-[1,1′-biphenyl]-2-yl)carbamate]
35 | 42.7 nM | CN1CCC[C@H]1COC(=O)Nc1ccc(F)cc1-c1cc(F)c(F)cc1F [Example 173, (S)-(1-methylpyrrolidin-2-yl)methyl (2′,4′,5,5′-tetrafluoro-[1,1′-biphenyl]-2-yl)carbamate]
36 | 13 nM | CCN1CC[C@H](COC(=O)Nc2ccccc2-c2ccccc2)C1 [Example 103, (S)-(1-ethylpyrrolidin-3-yl)methyl [1,1′-biphenyl]-2-ylcarbamate]
37 | 19.6 nM | CCN1CC[C@H](COC(=O)Nc2ccccc2-c2cccc(C)c2)C1 [Example 105, (S)-(1-ethylpyrrolidin-3-yl)methyl (3′-methyl-[1,1′-biphenyl]-2-yl)carbamate]
38 | 282 nM | CN1CCC[C@H]1COC(=O)Nc1ccccc1-c1cccc(C#N)c1 [Example 169, (S)-(1-methylpyrrolidin-2-yl)methyl(3′-cyano-[1,1′-biphenyl]-2-yl)carbamate]
39 | 77.4 nM | COc1ccc(NC(=O)OC[C@@H]2CCN(C)C2)c(-c2ccc(F)c(Cl)c2)c1 [Example 147, (R)-(1-methylpyrrolidin-3-yl)methyl(3′-chloro-4′-fluoro-5-methoxy-[1,1′-biphenyl]-2-yl)carbamate]
40 | 111 nM | Cc1ccc(NC(=O)OC[C@@H]2CCNC2)c(-c2ccccc2)c1 [Example 86, (R)-pyrrolidin-3-ylmethyl (5-methyl-[1,1′-biphenyl]-2-yl)carbamate]
